Laboratory results: ChEMBL document CHEMBL3885881, “DrugMatrix”

Species on record: Rattus norvegicus
Assay: DrugMatrix - Regimen: Daily Repeat
Assay type: toxicity, organism-based, Sprague-Dawley
Parameters: regimen Daily Repeat, gender Male, age 6-8 weeks
Conditions: in vivo, po, route oral GAVAGE, […]; for ABSOLUTE BASOPHIL / ABSOLUTE EOSINOPHIL / ABSOLUTE LYMPHOCYTE / ABSOLUTE MONOCYTE / ABSOLUTE SEGMENTED NEUTROPHIL / BASOPHIL / EOSINOPHIL / ERYTHROCYTE COUNT / HEMATOCRIT / HEMOGLOBIN / LEUKOCYTE COUNT / LYMPHOCYTE / MEAN CORPUSCULAR HEMOGLOBIN / MEAN CORPUSCULAR HEMOGLOBIN CONCENTRATION / MEAN CORPUSCULAR VOLUME / MONOCYTE / NEUTROPHIL / NUCLEATED RED BLOOD CELLS / PLATELET COUNT: tissue Blood; for ALANINE AMINOTRANSFERASE / ALBUMIN / ALKALINE PHOSPHATASE / ASPARTATE AMINOTRANSFERASE / BLOOD UREA NITROGEN / CARBON DIOXIDE / CHLORIDE / CHOLESTEROL / CREATINE PHOSPHOKINASE / CREATININE / GLUCOSE / LACTATE DEHYDROGENASE / LIPASE / PHOSPHORUS / POTASSIUM / SODIUM / TOTAL BILIRUBIN / TOTAL PROTEIN / URIC ACID: tissue Plasma
[1] = 0 mg/kg, 72 h, dose level Control, time 3 day
[2] = 0 mg/kg, 120 h, dose level Control, time 5 day
[3] = 100 mg/kg, 72 h, dose level Low, time 3 day

CCCC[C@@H](CC)COC(=O)c1ccccc1C(=O)OC[C@@H](CC)CCCC [BIS(2-ETHYLHEXYL)PHTHALATE]
ABSOLUTE BASOPHIL [1]: 0 CELLS/uL | ABSOLUTE EOSINOPHIL [1]: 13.67 CELLS/uL | ABSOLUTE LYMPHOCYTE [1]: 10069.5 CELLS/uL | ABSOLUTE MONOCYTE [1]: 50 CELLS/uL | ABSOLUTE SEGMENTED NEUTROPHIL [1]: 516.83 CELLS/uL | BASOPHIL [1]: 0% | EOSINOPHIL [1]: 0.17% | ERYTHROCYTE COUNT [1]: 5.44 x10E6/uL | HEMATOCRIT [1]: 33.88% | HEMOGLOBIN [1]: 13.23 G/DL | LEUKOCYTE COUNT [1]: 10.65 x10E3/uL | LYMPHOCYTE [1]: 94.67% | MEAN CORPUSCULAR HEMOGLOBIN [1]: 24.37 pg | MEAN CORPUSCULAR HEMOGLOBIN CONCENTRATION [1]: 39.05 G/DL | MEAN CORPUSCULAR VOLUME [1]: 62.38 fL | MONOCYTE [1]: 0.67% | NEUTROPHIL [1]: 4.5% | NUCLEATED RED BLOOD CELLS [1]: 0.33 /100WBC | PLATELET COUNT [1]: 414.5 x10E3/uL | ALANINE AMINOTRANSFERASE [1]: 72 u/L | ALBUMIN [1]: 3.75 G/DL | ALKALINE PHOSPHATASE [1]: 375 u/L | ASPARTATE AMINOTRANSFERASE [1]: 87.5 u/L | BLOOD UREA NITROGEN [1]: 14 mg/dL | CARBON DIOXIDE [1]: 27.5 mmol/L | CHLORIDE [1]: 95.83 MEQ/L | CHOLESTEROL [1]: 68.5 mg/dL | CREATINE PHOSPHOKINASE [1]: 284.33 u/L | CREATININE [1]: 0.16 mg/dL | GLUCOSE [1]: 156.67 mg/dL | LACTATE DEHYDROGENASE [1]: 101.83 u/L | LIPASE [1]: 9.67 u/L | PHOSPHORUS [1]: 10.33 mg/dL | POTASSIUM [1]: 5.22 MEQ/L | SODIUM [1]: 137.67 MEQ/L | TOTAL BILIRUBIN [1]: 0.13 mg/dL | TOTAL PROTEIN [1]: 5.43 G/DL | URIC ACID [1]: 0.8 mg/dL | ABSOLUTE BASOPHIL [2]: 0 CELLS/uL | ABSOLUTE EOSINOPHIL [2]: 20.67 CELLS/uL | ABSOLUTE LYMPHOCYTE [2]: 11518.33 CELLS/uL | ABSOLUTE MONOCYTE [2]: 47 CELLS/uL | ABSOLUTE SEGMENTED NEUTROPHIL [2]: 614 CELLS/uL | BASOPHIL [2]: 0% | EOSINOPHIL [2]: 0.17% | ERYTHROCYTE COUNT [2]: 5.61 x10E6/uL | HEMATOCRIT [2]: 34.25% | HEMOGLOBIN [2]: 13.38 G/DL | LEUKOCYTE COUNT [2]: 12.2 x10E3/uL | LYMPHOCYTE [2]: 94.33% | MEAN CORPUSCULAR HEMOGLOBIN [2]: 23.83 pg | MEAN CORPUSCULAR HEMOGLOBIN CONCENTRATION [2]: 39.08 G/DL | MEAN CORPUSCULAR VOLUME [2]: 61.03 fL | MONOCYTE [2]: 0.33% | NEUTROPHIL [2]: 5.17% | NUCLEATED RED BLOOD CELLS [2]: 0 /100WBC | PLATELET COUNT [2]: 941.83 x10E3/uL | ALANINE AMINOTRANSFERASE [2]: 68.83 u/L | ALBUMIN [2]: 4.12 G/DL | ALKALINE PHOSPHATASE [2]: 492.67 u/L | ASPARTATE AMINOTRANSFERASE [2]: 83.33 u/L | BLOOD UREA NITROGEN [2]: 14 mg/dL | CARBON DIOXIDE [2]: 37 mmol/L | CHLORIDE [2]: 98.67 MEQ/L | CHOLESTEROL [2]: 56.5 mg/dL | CREATINE PHOSPHOKINASE [2]: 167.33 u/L | CREATININE [2]: 0.17 mg/dL | GLUCOSE [2]: 157.5 mg/dL | LACTATE DEHYDROGENASE [2]: 104.83 u/L | LIPASE [2]: 10 u/L | PHOSPHORUS [2]: 10.43 mg/dL | POTASSIUM [2]: 5.46 MEQ/L | SODIUM [2]: 143.87 MEQ/L | TOTAL BILIRUBIN [2]: 0.17 mg/dL | TOTAL PROTEIN [2]: 5.72 G/DL | URIC ACID [2]: 0.85 mg/dL | ABSOLUTE BASOPHIL [3]: 0 CELLS/uL | ABSOLUTE EOSINOPHIL [3]: 23 CELLS/uL | ABSOLUTE LYMPHOCYTE [3]: 7479.67 CELLS/uL | ABSOLUTE MONOCYTE [3]: 44.67 CELLS/uL | ABSOLUTE SEGMENTED NEUTROPHIL [3]: 819.33 CELLS/uL | BASOPHIL [3]: 0% | EOSINOPHIL [3]: 0.33% | ERYTHROCYTE COUNT [3]: 5.6 x10E6/uL | HEMATOCRIT [3]: 35.03% | HEMOGLOBIN [3]: 13.73 G/DL | LEUKOCYTE COUNT [3]: 8.37 x10E3/uL | LYMPHOCYTE [3]: 89% | MEAN CORPUSCULAR HEMOGLOBIN [3]: 24.5 pg | MEAN CORPUSCULAR HEMOGLOBIN CONCENTRATION [3]: 39.17 G/DL | MEAN CORPUSCULAR VOLUME [3]: 62.6 fL | MONOCYTE [3]: 0.67% | NEUTROPHIL [3]: 10% | NUCLEATED RED BLOOD CELLS [3]: 0 /100WBC | PLATELET COUNT [3]: 750.33 x10E3/uL | ALANINE AMINOTRANSFERASE [3]: 89.33 u/L | ALBUMIN [3]: 3.97 G/DL | ALKALINE PHOSPHATASE [3]: 408.33 u/L | ASPARTATE AMINOTRANSFERASE [3]: 88.67 u/L | BLOOD UREA NITROGEN [3]: 14 mg/dL | CARBON DIOXIDE [3]: 26.67 mmol/L | CHLORIDE [3]: 96 MEQ/L | CHOLESTEROL [3]: 60 mg/dL | CREATINE PHOSPHOKINASE [3]: 210.67 u/L | CREATININE [3]: 0.11 mg/dL | GLUCOSE [3]: 148.33 mg/dL | LACTATE DEHYDROGENASE [3]: 81 u/L | LIPASE [3]: 10.33 u/L | PHOSPHORUS [3]: 10 mg/dL | POTASSIUM [3]: 5.11 MEQ/L | SODIUM [3]: 138.1 MEQ/L | TOTAL BILIRUBIN [3]: 0.17 mg/dL | TOTAL PROTEIN [3]: 5.5 G/DL | URIC ACID [3]: 0.63 mg/dL
